Reference: US11154853B2, “Generation of data for use with antimicrobials” (GeneFluidics, Inc., priority 2017, dated 2021)
Like-named read-outs stand apart in the source and are kept apart here.

Test system: E. coli
Procedure: Susceptibility cultures can be started.
(§1) Then, the Proteus automated system can add 12 μL of 1M NaOH to the 30 μL sample. […] The Proteus system can then add 8 μL of 1M HCl. Ten microliters of the result can be placed on each of 4 sensors of the 16 available on the GeneFluidics, Inc. 16X EC chip. This chip can be incubated in the Proteus machine for 11 minutes at 43° C. After completion of this incubation, the chip can be washed and dried by Proteus. Ten microliters of 0.5 U/mL anti-fluorescein horseradish peroxidase (HRP) Fab fragments (Roche; diluted in 1.0% casein in […] phosphate-buffered saline, pH 7.4) can be injected into the sensor chambers and incubated for 2 minutes at 25° C.
as §1
For instance, a Helios potentiostat from GeneFluidics, Inc. was connected to the electrodes of the sensor chips and a potential of −250 mV was applied across the electrodes for one minute. During this time, the current generated by the electrochemical reaction was measured by the potentiostat. The average current measured in the final 10 seconds of the potentiostat reading constituted the final result of the assay.

O=C(O)c1cn(C2CC2)c2cc(N3CCNCC3)c(F)cc2c1=O [ciprofloxacin]
average current signal of the four sensors (base susceptibility test) (0 minute susceptibility culture time, 0.4 μg antibiotic in 100 μL Mueller-Hinton broth, 5×10^5 CFU/mL): 30 nA
increase over the current level from base susceptibility test (60 minute susceptibility culture time): 0%
current of processed sample (60 minute susceptibility culture time, 0.4 μg antibiotic in 100 μL Mueller-Hinton broth): 30 nA
increase over the current level from base susceptibility test (90 minute susceptibility culture time): 0%
reported result (resistant / susceptible) (E. coli from patient urine sample, at the concentration of antibiotic in the culture): susceptible
